ChEMBL document CHEMBL1128612, “Synthesis and biological activity of enantiomers of a conformationally restricted muscarone analog” (Bioorg Med Chem Lett, 1995)
pKi: −log10 of the molar value.

What was measured:
[1] = target: T1, Muscarinic acetylcholine receptor M2 (Rattus norvegicus, UniProt P10980)
T1 sequence (P10980 whole entry): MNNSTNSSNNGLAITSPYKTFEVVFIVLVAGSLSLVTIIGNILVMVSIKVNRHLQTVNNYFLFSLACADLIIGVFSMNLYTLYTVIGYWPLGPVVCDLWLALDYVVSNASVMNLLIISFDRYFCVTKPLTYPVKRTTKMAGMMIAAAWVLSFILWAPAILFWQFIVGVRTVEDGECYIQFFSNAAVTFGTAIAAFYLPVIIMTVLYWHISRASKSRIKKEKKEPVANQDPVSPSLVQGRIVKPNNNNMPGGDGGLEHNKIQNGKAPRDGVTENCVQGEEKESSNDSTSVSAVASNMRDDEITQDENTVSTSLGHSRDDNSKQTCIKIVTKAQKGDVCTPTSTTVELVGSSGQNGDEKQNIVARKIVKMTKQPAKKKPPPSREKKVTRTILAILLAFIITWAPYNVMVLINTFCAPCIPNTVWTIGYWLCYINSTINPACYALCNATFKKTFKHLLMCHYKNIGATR
Description: Compound was evaluated for its affinity towards Muscarinic acetylcholine receptor M2, using [3H]- N-methyl-scopolamine, a radioligand displacement assay in rat heart membranes

[2] = target: Muscarinic acetylcholine receptor M3 (Cavia porcellus) (UniProt Q8VH26)
Description: Compound was evaluated for dissociation constant (KA), determined from potency against Muscarinic acetylcholine receptor M3 in an isolated tissue assay (guinea pig trachea)

[3] = target: T2, Muscarinic acetylcholine receptor M1 (Rattus norvegicus, UniProt P08482)
T2 sequence (P08482 whole entry): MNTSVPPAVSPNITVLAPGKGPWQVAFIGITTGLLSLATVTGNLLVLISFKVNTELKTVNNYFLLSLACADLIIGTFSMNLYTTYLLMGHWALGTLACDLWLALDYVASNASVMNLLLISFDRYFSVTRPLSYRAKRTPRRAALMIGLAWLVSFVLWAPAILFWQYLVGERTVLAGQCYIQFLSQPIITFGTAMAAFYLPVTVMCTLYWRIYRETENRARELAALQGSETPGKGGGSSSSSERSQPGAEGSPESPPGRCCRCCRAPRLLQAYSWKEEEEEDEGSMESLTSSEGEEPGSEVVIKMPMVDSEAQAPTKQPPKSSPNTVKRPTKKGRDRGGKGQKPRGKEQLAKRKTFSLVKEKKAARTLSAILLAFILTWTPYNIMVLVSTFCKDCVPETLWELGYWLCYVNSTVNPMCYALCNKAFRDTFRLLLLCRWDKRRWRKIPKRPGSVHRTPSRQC
Description: Compound was evaluated for its affinity towards Muscarinic acetylcholine receptor M1, using [3H]- pirenzepine, a radioligand displacement assay in rat hippocampal membranes

Sequence of Muscarinic acetylcholine receptor M3 (Cavia porcellus) (Q8VH26 1-587): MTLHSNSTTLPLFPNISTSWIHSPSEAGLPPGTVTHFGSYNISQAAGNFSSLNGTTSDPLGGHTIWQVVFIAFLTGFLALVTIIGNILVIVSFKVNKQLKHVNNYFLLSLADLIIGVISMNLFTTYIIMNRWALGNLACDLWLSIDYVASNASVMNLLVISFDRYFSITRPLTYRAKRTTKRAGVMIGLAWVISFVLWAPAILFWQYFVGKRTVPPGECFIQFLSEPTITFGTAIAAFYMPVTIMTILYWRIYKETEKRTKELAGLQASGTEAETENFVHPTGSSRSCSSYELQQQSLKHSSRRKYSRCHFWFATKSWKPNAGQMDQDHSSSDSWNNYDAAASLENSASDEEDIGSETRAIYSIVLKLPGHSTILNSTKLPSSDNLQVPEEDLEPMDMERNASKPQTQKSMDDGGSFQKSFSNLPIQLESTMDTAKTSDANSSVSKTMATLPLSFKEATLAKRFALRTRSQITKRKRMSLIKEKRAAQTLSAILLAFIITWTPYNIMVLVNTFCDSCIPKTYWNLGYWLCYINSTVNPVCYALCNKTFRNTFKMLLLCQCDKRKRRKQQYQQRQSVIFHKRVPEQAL

pKi [1] | KA [2] [µM] | pKi [3] | SMILES
5.60 | 0.28 | 5.39 | C[C@@H]1OC2(CCN(C)CC2)CC1=O
4.43 | 4.5 | 4.59 | C[C@H]1OC2(CCN(C)CC2)CC1=O
5.28 | 0.7 | 5.42 | CC1OC2(CCN(C)CC2)CC1=O (centres undefined)
